Data: ChEMBL document CHEMBL5143665, “Discovery and preclinical evaluations of WX-0593, a novel ALK inhibitor targeting crizotinib-resistant mutations” (Bioorg Med Chem Lett, 2022)
Each block holds one compound with its values, some of them ahead of it. The source made the active and inactive calls. The calls are words filed in the database; no cut-off is given here.

Key:
[1] = Clearance in mouse at 1 mg/kg, iv; assay type: ADME, organism-based; conditions: in vivo
[2] = Volume of distribution at steady state in mouse at 1 mg/kg, iv; assay type: ADME, organism-based; conditions: in vivo, read-out: Vdss
[3] = Half-life in mouse at 1 mg/kg, iv; assay type: ADME, organism-based; conditions: in vivo
[4] = Cmax in mouse at 10 mg/kg, po; assay type: ADME, organism-based; design: dose 10 mg/kg, route po; conditions: in vivo
[5] = AUC (0 to last) in mouse at 10 mg/kg, po; assay type: ADME, organism-based; design: time 0 - last, dose 10 mg/kg, route po; conditions: in vivo
[6] = Oral bioavailability in mouse at 10 mg/kg; assay type: ADME, organism-based; conditions: in vivo
[7] = system: KARPAS-299; experiment: cells; conditions: Homo sapiens
Description: Antiproliferative activity against human KARPAS-299 cells harbouring wild type ALK assessed as reduction in cell viability by Celltitre-Glo luminescent assay

[8] = system: BaF3; experiment: cells; conditions: Mus musculus
Description: Antiproliferative activity against mouse BaF3 cells harbouring ALK wild type assessed as reduction in cell viability by Celltitre-Glo luminescent assay

[9] = system: BaF3; experiment: cells; conditions: Mus musculus; remark: listed apart in the source
Description: Antiproliferative activity against mouse BaF3 cells harbouring ALK L1196M mutant assessed as reduction in cell viability by Celltitre-Glo luminescent assay

[10] = system: BaF3; experiment: cells; conditions: Mus musculus; remark: listed apart in the source
Description: Antiproliferative activity against mouse BaF3 cells harbouring ALK C1156Y mutant assessed as reduction in cell viability by Celltitre-Glo luminescent assay

[11] = system: BaF3; experiment: Antiproliferative activity against crizotinib resistant mouse BaF3 cells expressing EML4 fused ALK F1174C mutant assessed as reduction in cell viability incubated for 72 hrs by Celltitre-Glo luminescent assay; assay type: functional, cell-based; conditions: BaF3, 72 h
[12] = system: BaF3; experiment: Antiproliferative activity against crizotinib resistant mouse BaF3 cells expressing EML4 fused ALK I1171S mutant assessed as reduction in cell viability incubated for 72 hrs by Celltitre-Glo luminescent assay; assay type: functional, cell-based; conditions: BaF3, 72 h
[13] = system: BaF3; experiment: Antiproliferative activity against crizotinib resistant mouse BaF3 cells expressing EML4 fused ALK T1151Tins mutant assessed as reduction in cell viability incubated for 72 hrs by Celltitre-Glo luminescent assay; assay type: functional, cell-based; conditions: BaF3, 72 h
[14] = system: BaF3; experiment: Antiproliferative activity against crizotinib resistant mouse BaF3 cells expressing EML4 fused ALK F1174V mutant assessed as reduction in cell viability incubated for 72 hrs by Celltitre-Glo luminescent assay; assay type: functional, cell-based; conditions: BaF3, 72 h
[15] = system: BaF3; experiment: Antiproliferative activity against crizotinib resistant mouse BaF3 cells expressing EML4 fused ALK V1180L mutant assessed as reduction in cell viability incubated for 72 hrs by Celltitre-Glo luminescent assay; assay type: functional, cell-based; conditions: BaF3, 72 h
[16] = system: BaF3; experiment: Antiproliferative activity against crizotinib resistant mouse BaF3 cells expressing EML4 fused ALK L1152R mutant assessed as reduction in cell viability incubated for 72 hrs by Celltitre-Glo luminescent assay; assay type: functional, cell-based; conditions: BaF3, 72 h
[17] = system: BaF3; experiment: Antiproliferative activity against crizotinib resistant mouse BaF3 cells expressing EML4 fused ALK L1152P mutant assessed as reduction in cell viability incubated for 72 hrs by Celltitre-Glo luminescent assay; assay type: functional, cell-based; conditions: BaF3, 72 h
[18] = system: BaF3; experiment: Antiproliferative activity against crizotinib resistant mouse BaF3 cells expressing EML4 fused ALK I1171T mutant assessed as reduction in cell viability incubated for 72 hrs by Celltitre-Glo luminescent assay; assay type: functional, cell-based; conditions: BaF3, 72 h
[19] = system: BaF3; experiment: Antiproliferative activity against crizotinib resistant mouse BaF3 cells expressing EML4 fused ALK I1171N mutant assessed as reduction in cell viability incubated for 72 hrs by Celltitre-Glo luminescent assay; assay type: functional, cell-based; conditions: BaF3, 72 h
[20] = system: BaF3; experiment: Antiproliferative activity against mouse BaF3 cells harbouring SLC34A2-ROS1-L2026M mutant assessed as reduction in cell viability incubated for 72 hrs by Celltitre-Glo luminescent assay; assay type: functional, cell-based; conditions: BaF3, 72 h
[21] = system: BaF3; experiment: Antiproliferative activity against mouse BaF3 cells harbouring CD74-ROS1-S1986Y mutant assessed as reduction in cell viability incubated for 72 hrs by Celltitre-Glo luminescent assay; assay type: functional, cell-based; conditions: BaF3, 72 h
[22] = system: BaF3; experiment: Antiproliferative activity against mouse BaF3 cells harbouring CD74-ROS1-S1986F mutant assessed as reduction in cell viability incubated for 72 hrs by Celltitre-Glo luminescent assay; assay type: functional, cell-based; conditions: BaF3, 72 h
[23] = system: BaF3; experiment: Antiproliferative activity against mouse BaF3 cells harbouring CD74-ROS1-D2033N mutant assessed as reduction in cell viability incubated for 72 hrs by Celltitre-Glo luminescent assay; assay type: functional, cell-based; conditions: BaF3, 72 h
[24] = cells; conditions: Mus musculus, Ba/F3 EML4-ALK, 72 h
[25] = cells; conditions: Mus musculus, BaF3, 72 h
[26] = cells; conditions: Mus musculus, Ba/F3 EML4-ALK-G1202R, 72 h
[27] = cells; conditions: Mus musculus, BaF3, 72 h; remark: listed apart in the source
[28] = cells; conditions: Mus musculus, BaF3, 72 h; remark: listed apart in the source
[29] = target: ALK tyrosine kinase receptor (Homo sapiens, UniProt Q9UM73, C1156Y)
ALK tyrosine kinase receptor (Homo sapiens, UniProt Q9UM73, C1156Y), sequence (Q9UM73 19-1620 C1156Y limits assumed): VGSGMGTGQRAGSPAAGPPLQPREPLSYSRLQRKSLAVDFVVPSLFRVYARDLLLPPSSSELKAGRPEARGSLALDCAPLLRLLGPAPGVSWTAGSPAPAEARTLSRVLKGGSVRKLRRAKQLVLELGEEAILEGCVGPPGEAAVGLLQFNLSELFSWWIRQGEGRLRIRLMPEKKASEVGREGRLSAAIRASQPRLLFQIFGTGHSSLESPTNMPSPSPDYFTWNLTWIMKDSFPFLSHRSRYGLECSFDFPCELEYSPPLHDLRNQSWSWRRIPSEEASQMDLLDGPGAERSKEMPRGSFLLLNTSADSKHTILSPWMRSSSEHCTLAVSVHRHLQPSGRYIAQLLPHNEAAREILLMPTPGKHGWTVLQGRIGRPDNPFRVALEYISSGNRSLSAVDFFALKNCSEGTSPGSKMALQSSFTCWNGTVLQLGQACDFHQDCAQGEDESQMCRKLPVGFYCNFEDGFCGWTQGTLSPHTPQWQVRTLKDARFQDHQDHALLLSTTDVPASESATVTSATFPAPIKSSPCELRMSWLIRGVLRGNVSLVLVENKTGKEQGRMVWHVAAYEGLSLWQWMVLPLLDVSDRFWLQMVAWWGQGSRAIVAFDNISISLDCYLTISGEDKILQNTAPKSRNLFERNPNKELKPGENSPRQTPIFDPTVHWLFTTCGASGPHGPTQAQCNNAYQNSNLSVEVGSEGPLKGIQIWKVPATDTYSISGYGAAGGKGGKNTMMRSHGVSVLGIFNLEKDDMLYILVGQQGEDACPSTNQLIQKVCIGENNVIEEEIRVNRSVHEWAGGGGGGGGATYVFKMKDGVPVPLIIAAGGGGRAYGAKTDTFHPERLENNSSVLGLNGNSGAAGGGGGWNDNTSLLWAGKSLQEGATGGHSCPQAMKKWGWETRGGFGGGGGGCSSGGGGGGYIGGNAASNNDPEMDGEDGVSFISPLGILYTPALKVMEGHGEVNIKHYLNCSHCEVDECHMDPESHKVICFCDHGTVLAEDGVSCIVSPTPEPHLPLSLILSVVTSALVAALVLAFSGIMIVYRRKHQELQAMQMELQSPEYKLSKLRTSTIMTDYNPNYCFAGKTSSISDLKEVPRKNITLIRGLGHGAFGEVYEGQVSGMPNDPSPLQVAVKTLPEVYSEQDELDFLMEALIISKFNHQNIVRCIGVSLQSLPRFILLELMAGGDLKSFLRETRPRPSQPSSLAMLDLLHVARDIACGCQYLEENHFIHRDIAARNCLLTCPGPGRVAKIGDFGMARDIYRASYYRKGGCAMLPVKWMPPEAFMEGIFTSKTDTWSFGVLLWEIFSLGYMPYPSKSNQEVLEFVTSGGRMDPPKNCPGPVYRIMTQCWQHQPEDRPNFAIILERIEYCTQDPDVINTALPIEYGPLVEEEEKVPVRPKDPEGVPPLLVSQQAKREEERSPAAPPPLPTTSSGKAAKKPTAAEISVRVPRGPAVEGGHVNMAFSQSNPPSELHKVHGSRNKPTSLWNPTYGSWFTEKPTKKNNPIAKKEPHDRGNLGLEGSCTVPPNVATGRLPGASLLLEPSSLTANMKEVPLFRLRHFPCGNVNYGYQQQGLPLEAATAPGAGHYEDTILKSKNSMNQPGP

[30] = target: T1, ALK tyrosine kinase receptor (Homo sapiens, UniProt Q9UM73)
Target sequence in this assay (Q9UM73 whole entry): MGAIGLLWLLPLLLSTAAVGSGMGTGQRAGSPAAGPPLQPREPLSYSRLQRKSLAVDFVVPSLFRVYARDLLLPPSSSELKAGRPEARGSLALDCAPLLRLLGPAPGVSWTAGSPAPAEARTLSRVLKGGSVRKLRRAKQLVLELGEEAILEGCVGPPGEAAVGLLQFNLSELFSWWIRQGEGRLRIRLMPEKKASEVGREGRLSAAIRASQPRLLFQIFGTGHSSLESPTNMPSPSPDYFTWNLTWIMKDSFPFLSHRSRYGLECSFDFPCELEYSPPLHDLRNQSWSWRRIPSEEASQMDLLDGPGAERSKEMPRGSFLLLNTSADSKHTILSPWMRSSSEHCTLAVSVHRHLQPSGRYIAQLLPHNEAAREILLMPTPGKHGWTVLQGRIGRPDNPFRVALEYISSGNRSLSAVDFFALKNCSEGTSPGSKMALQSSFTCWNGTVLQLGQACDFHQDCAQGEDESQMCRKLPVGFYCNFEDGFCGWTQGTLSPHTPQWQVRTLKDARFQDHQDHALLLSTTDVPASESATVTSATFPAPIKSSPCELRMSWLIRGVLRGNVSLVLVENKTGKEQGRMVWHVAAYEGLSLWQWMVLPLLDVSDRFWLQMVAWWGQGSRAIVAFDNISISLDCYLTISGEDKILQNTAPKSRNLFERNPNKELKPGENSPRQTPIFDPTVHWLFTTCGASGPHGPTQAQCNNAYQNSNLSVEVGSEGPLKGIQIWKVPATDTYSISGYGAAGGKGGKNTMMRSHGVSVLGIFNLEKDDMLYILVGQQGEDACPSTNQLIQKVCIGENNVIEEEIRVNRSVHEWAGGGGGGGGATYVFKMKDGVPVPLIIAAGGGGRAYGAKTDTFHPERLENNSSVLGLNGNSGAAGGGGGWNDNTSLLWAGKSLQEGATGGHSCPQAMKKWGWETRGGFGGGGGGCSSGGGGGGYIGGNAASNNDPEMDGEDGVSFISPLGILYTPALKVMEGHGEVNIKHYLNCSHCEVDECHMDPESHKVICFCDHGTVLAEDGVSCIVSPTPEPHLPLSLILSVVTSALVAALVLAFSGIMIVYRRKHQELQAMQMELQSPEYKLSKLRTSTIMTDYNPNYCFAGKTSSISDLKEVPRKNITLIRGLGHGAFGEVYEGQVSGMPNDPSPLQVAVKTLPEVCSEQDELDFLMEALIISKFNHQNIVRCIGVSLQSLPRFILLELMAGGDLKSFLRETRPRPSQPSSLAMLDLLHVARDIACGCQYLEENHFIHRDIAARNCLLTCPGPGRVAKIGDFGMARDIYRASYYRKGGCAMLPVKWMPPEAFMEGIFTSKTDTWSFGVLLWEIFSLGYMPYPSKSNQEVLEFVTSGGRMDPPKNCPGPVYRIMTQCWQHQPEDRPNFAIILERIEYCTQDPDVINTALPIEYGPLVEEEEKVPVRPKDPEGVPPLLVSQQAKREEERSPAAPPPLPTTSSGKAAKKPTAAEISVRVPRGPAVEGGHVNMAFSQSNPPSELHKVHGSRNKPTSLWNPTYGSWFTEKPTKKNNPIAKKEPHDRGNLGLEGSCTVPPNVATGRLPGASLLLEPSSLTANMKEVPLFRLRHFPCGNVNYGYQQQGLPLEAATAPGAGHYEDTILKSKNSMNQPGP

[31] = Clearance in Balb/c nude mouse at 1 mg/kg, iv; assay type: ADME, organism-based; conditions: in vivo
[32] = Volume of distribution at steady state in Balb/c nude mouse at 1 mg/kg, iv; assay type: ADME, organism-based; conditions: in vivo, read-out: Vdss
[33] = Half-life in Balb/c nude mouse at 1 mg/kg, iv; assay type: ADME, organism-based; conditions: in vivo
[34] = Cmax in Balb/c nude mouse at 5 mg/kg, po; assay type: ADME, organism-based; design: dose 5 mg/kg, route po; conditions: in vivo
[35] = AUC (0 to last) in Balb/c nude mouse at 5 mg/kg, po; assay type: ADME, organism-based; design: time 0 - last, dose 5 mg/kg, route po; conditions: in vivo
[36] = Oral bioavailability in Balb/c nude mouse at 5 mg/kg; assay type: ADME, organism-based; conditions: in vivo
[37] = Cmax in Sprague-Dawley rat at 8 mg/kg, po; assay type: ADME, organism-based; design: dose 8 mg/kg, route po; conditions: in vivo
[38] = AUC (0 to last) in Sprague-Dawley rat at 8 mg/kg, po; assay type: ADME, organism-based; design: time 0 - last, dose 8 mg/kg, route po; conditions: in vivo
[39] = Cmax in Cynomolgus monkey at 2 mg/kg, po; assay type: ADME, organism-based, Macaca fascicularis; design: dose 2 mg/kg, route po; conditions: in vivo
[40] = AUC (0 to last) in Cynomolgus monkey at 2 mg/kg, po; assay type: ADME, organism-based, Macaca fascicularis; design: time 0 - last, dose 2 mg/kg, route po; conditions: in vivo
[41] = Clearance in Beagle dog at 1 mg/kg, iv; assay type: ADME, organism-based, Canis lupus familiaris; conditions: in vivo
[42] = Volume of distribution at steady state in Beagle dog at 1 mg/kg, iv; assay type: ADME, organism-based, Canis lupus familiaris; conditions: in vivo, read-out: Vdss
[43] = Half-life in Beagle dog at 1 mg/kg, iv; assay type: ADME, organism-based, Canis lupus familiaris; conditions: in vivo
[44] = target: T1, ALK tyrosine kinase receptor; experiment: Inhibition of ALK phosphorylation in human NCI-H3122 cells by Western blotting analysis; assay type: cell-based; conditions: DDE = dose-dependent effect
Target sequence in this assay (Q9UM73 19-1620 limits assumed): as the sequence (Q9UM73 19-1620 C1156Y limits assumed) above, with Y1138C counted along it

[45] = system: NCI-H3122; experiment: Inhibition of ERK phosphorylation in human NCI-H3122 cells by Western blotting analysis; assay type: cell-based; conditions: DDE = dose-dependent effect
[46] = target: T2, Signal transducer and activator of transcription 5A (Homo sapiens) (UniProt P42229); experiment: Inhibition of STAT5 phosphorylation in human NCI-H3122 cells by Western blotting analysis; assay type: cell-based; conditions: DDE = dose-dependent effect
T2 sequence (whole entry): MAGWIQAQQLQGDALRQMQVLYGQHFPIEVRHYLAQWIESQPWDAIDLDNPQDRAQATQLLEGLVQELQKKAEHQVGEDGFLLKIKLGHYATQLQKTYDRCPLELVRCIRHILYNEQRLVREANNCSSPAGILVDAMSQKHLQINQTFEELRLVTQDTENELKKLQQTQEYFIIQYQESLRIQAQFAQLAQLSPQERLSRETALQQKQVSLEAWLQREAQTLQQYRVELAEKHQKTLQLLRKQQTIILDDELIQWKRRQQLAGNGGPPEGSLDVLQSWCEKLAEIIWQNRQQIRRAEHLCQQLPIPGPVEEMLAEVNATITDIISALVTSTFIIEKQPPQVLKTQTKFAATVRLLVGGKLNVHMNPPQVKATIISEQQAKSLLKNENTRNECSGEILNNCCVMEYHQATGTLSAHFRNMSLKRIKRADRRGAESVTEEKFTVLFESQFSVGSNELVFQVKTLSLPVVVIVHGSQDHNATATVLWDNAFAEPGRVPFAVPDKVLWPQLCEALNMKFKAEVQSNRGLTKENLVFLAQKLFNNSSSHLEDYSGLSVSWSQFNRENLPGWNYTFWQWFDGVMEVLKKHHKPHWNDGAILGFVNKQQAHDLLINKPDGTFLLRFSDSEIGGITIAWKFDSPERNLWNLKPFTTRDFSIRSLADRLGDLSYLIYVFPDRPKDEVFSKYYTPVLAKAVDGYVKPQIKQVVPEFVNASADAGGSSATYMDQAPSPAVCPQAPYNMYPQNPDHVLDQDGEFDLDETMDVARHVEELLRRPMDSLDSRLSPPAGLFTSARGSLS

[47] = system: NCI-H3122; experiment: Inhibition of AKT phosphorylation in human NCI-H3122 cells at highest concentration by Western blotting analysis; assay type: cell-based
[48] = system: LU-01-0319; experiment: Antitumor activity against crizotinib-resistant patient derived LU-01-0319 cells xenografted in mouse assessed as tumor regression at 2.5 mg/kg, po; assay type: functional, organism-based; conditions: Homo sapiens
[49] = system: LU-01-0319R; experiment: Antitumor activity against crizotinib-resistant patient derived LU-01-0319R cells xenografted in nude mouse at 2.5 to 10 mg/kg, po dosed once daily for 21 days; assay type: functional, organism-based; conditions: Homo sapiens, dose 2.5-10 mg/kg, time 21.0 day
[50] = system: LU-01-0319R; experiment: Antitumor activity against crizotinib-resistant patient derived LU-01-0319R cells xenografted in nude mouse assessed as tumor regression at 10 mg/kg, po dosed once daily for 21 days; assay type: functional, organism-based; conditions: Homo sapiens, time 21.0 day
[51] = Toxicity in nude mouse xenografted with crizotinib-resistant patient derived LU-01-0319R cells assessed as tolerance at 2.5 to 10 mg/kg, po dosed once daily for 21 days; assay type: organism-based; conditions: in vivo, 504 h, dose 2.5-10 mg/kg, time 21 day
[52] = Toxicity in nude mouse xenografted with crizotinib-resistant patient derived LU-01-0319R cells assessed as body weight change at 2.5 to 10 mg/kg, po dosed once daily for 21 days; assay type: organism-based; conditions: in vivo, 504 h, dose 2.5-10 mg/kg, time 21 day

clearance [1]: 49 mL/min/kg
Vd [2]: 1.7 L/kg
half-life [3]: 1.5 h
Cmax [4]: 113 ng/mL
AUC(0-t) [5]: 219 ng·h/mL
bioavailability [6]: 5.2%
IC50 [7]: 0.06 µM
Compound: COc1cc(N2CCC3(CC2)CNC3)ccc1Nc1ncc(Cl)c(Nc2ccccc2P(C)(C)=O)n1

IC50 [7]: 0.015 µM
IC50 [8]: 0.024 µM
IC50 [9]: 0.039 µM
IC50 [10]: 0.036 µM
Compound: CN1CCC2(CC1)CCN(c1ccc(Nc3ncc(Cl)c(Nc4ccccc4P(C)(C)=O)n3)c(OC(F)F)c1)CC2

IC50 [11]: 0.098 µM
IC50 [12]: 0.093 µM
IC50 [13]: 0.035 µM
IC50 [14]: 0.047 µM
IC50 [15]: 0.01 µM
IC50 [16]: 0.01 µM
IC50 [17]: 0.001 µM
IC50 [18]: 0.019 µM
IC50 [19]: 0.035 µM
IC50 [20]: 0.048 µM
IC50 [21]: 0.012 µM
IC50 [22]: 0.02 µM
IC50 [23]: 0.036 µM
IC50 [24]: 0.025 µM
IC50 [25]: 0.031 µM
IC50 [26]: 0.34 µM
IC50 [27]: 0.031 µM
IC50 [28]: 0.022 µM
Compound: COc1cc(N2CCC(N3CCN(C)CC3)CC2)ccc1Nc1ncc(Cl)c(Nc2ccccc2P(C)(C)=O)n1 [BRIGATINIB]

IC50 [29]: 0.0018 µM
IC50 [30]: 0.0016 µM
IC50 [11]: 0.036 µM
IC50 [12]: 0.032 µM
IC50 ([13]; read-out: IC50): 0.012 µM
IC50 [14]: 0.022 µM
IC50 [15]: 0.008 µM
IC50 [16]: 0.004 µM
IC50 [17]: 0.001 µM
IC50 [18]: 0.011 µM
IC50 ([19]; read-out: IC50): 0.017 µM
IC50 [20]: 0.012 µM
IC50 [21]: 0.015 µM
IC50 [22]: 0.022 µM
IC50 [23]: 0.033 µM
clearance [31]: 22.4 mL/min/kg
Vd [32]: 2.33 L/kg
half-life [33]: 1.38 h
Cmax [34]: 741 ng/mL
AUC(0-t) [35]: 2450 ng·h/mL
bioavailability [36]: 66.2%
Cmax [37]: 499 ng/mL
AUC(0-t) [38]: 4000 ng·h/mL
Cmax [39]: 92.2 ng/mL
AUC(0-t) [40]: 598 ng·h/mL
clearance [41]: 8.6 mL/min/kg
Vd [42]: 4.6 L/kg
half-life [43]: 6.47 h
inhibition [44]: Dde
inhibition [46]: Dde
IC50 [7]: 0.0145 µM
IC50 [8]: 0.013 µM
IC50 [9]: 0.024 µM
IC50 [10]: 0.021 µM
IC50 [24]: 0.021 µM
IC50 [25]: 0.036 µM
IC50 [26]: 0.096 µM
IC50 [27]: 0.036 µM
IC50 [28]: 0.011 µM
Compound: COc1cc(N2CCC3(CCN(C)CC3)CC2)ccc1Nc1ncc(Cl)c(Nc2ccccc2P(C)(C)=O)n1 [IRUPLINALKIB]
inhibition [45]: Dde
inhibition [47]: Active
Activity [48]: Active
Activity [49]: Active
Activity [50]: Active
Activity [51]: Non-Toxic
Activity [52]: Non-Toxic
